Reference: PMC7561186, “Rational design of balanced dual-targeting antibiotics with limited resistance” (PLoS Biology, 2020)
Where two headings read alike, the source gives them in different places.

Test system: S. aureus clinical isolates
Assay: microbe, parasite or virus in culture
Type: cell-based
Details: Staphylococcus aureus, read-out: MIC

Measured: MIC

CC[C@H]1OC(=O)[C@H](C)[C@@H](O[C@H]2C[C@@](C)(OC)[C@@H](O)[C@H](C)O2)[C@H](C)[C@@H](O[C@@H]2O[C@H](C)C[C@H](N(C)C)[C@H]2O)[C@](C)(O)C[C@@H](C)CN(C)[C@H](C)[C@@H](O)[C@]1(C)O [Azithromycin]
0.25 µg/mL: MRSA, S. aureus IHMA 1666371, MRSA / VSSA | MSSA / NRS 52, S. aureus IHMA 1308252, NRS52, MSSA / VSSA* (*Expected VAN intermediate, confirmed VAN susceptible twice), test date 2018-11-07 | MSSA, S. aureus IHMA 1604586, MSSA / VSSA
16 µg/mL: MRSA, S. aureus IHMA 1612228, MRSA / VSSA
8 µg/mL: MSSA / NRS 17 / VISA, S. aureus IHMA 1308247, NRS17, MSSA / VISA
32 µg/mL: MRSA, S. aureus IHMA 1584223, MRSA / VSSA | MRSA, S. aureus IHMA 1720350, MRSA / VSSA | MSSA, S. aureus IHMA 1594297, MSSA / VSSA
1 µg/mL: ATCC 29213 / MSSA, S. aureus ATCC 29213, MSSA / VSSA, test date 2018-10-25 (three repeat lines) | ATCC 29213 / MSSA, S. aureus ATCC 29213, MSSA / VSSA, test date 2018-11-07 | MRSA, S. aureus IHMA 1575629, MRSA / VSSA | MRSA, S. aureus IHMA 1586780, MRSA / VSSA | MRSA, S. aureus IHMA 1591462, MRSA / VSSA | MRSA, S. aureus IHMA 1621638, MRSA / VSSA | MRSA, S. aureus IHMA 1622252, MRSA / VSSA | MRSA, S. aureus IHMA 1622527, MRSA / VSSA | MRSA, S. aureus IHMA 1766357, MRSA / VSSA | MSSA / NRS 13 / VISA, S. aureus IHMA 1308245, NRS13, MSSA / VISA | MSSA, S. aureus IHMA 1563826, MSSA / VSSA | MSSA, S. aureus IHMA 1565492, MSSA / VSSA | MSSA, S. aureus IHMA 1575652, MSSA / VSSA | MSSA, S. aureus IHMA 1576329, MSSA / VSSA | MSSA, S. aureus IHMA 1577800, MSSA / VSSA | MSSA, S. aureus IHMA 1578560, MSSA / VSSA | MSSA, S. aureus IHMA 1580925, MSSA / VSSA | MSSA, S. aureus IHMA 1580955, MSSA / VSSA | MSSA, S. aureus IHMA 1582586, MSSA / VSSA | MSSA, S. aureus IHMA 1584230, MSSA / VSSA | MSSA, S. aureus IHMA 1587279, MSSA / VSSA | MSSA, S. aureus IHMA 1592749, MSSA / VSSA | MSSA, S. aureus IHMA 1592751, MSSA / VSSA | MSSA, S. aureus IHMA 1599157, MSSA / VSSA | MSSA, S. aureus IHMA 1599506, MSSA / VSSA | MSSA, S. aureus IHMA 1604609, MSSA / VSSA | MSSA, S. aureus IHMA 1622864, MSSA / VSSA | MSSA, S. aureus IHMA 1713793, MSSA / VSSA
> 32 µg/mL: MRSA / NRS 3 / VISA, S. aureus IHMA 1308243, NRS3, MRSA / VISA | MRSA / NRS 4 / VISA, S. aureus IHMA 649380, NRS4, MRSA / VISA | MRSA / NRS 18 / VISA, S. aureus IHMA 649386, NRS18, MRSA / VISA | MRSA / NRS 19 / VISA, S. aureus IHMA 649387, NRS19, MRSA / VISA | MRSA / NRS 22 / USA600 / VISA, S. aureus IHMA 649389, NRS22, MRSA / VISA, USA600 | MRSA / NRS 23 / VISA, S. aureus IHMA 649390, NRS23, MRSA / VISA | MRSA / NRS 24 / VISA, S. aureus IHMA 649391, NRS24, MRSA / VISA | MRSA / NRS 26, S. aureus IHMA 649392, NRS26, MRSA / VSSA | MRSA / NRS 27 / VISA, S. aureus IHMA 1308248, NRS27, MRSA / VISA | MRSA / NRS 29 / VISA, S. aureus IHMA 1308250, NRS29, MRSA / VISA | MRSA / NRS 37 / VISA, S. aureus IHMA 1308251, NRS37, MRSA / VISA | MRSA / NRS 54, S. aureus IHMA 1308253, NRS54, MRSA / VSSA* (*Expected VAN intermediate, confirmed VAN susceptible twice), test date 2018-11-07 | MRSA / NRS 56 / VISA, S. aureus IHMA 1308254, NRS56, MRSA / VISA | MRSA / USA100 / VRSA, S. aureus IHMA 672230, VRS1, MRSA / VRSA, USA100 | MRSA / USA100 / VRSA, S. aureus IHMA 672231, VRS2, MRSA / VRSA, USA100 | MRSA / USA100 / VRSA, S. aureus IHMA 672234, VRS4, MRSA / VRSA, USA100 | MRSA / USA100 / VRSA, S. aureus IHMA 672235, VRS5, MRSA / VRSA, USA100 | MRSA / USA100 / VRSA, S. aureus IHMA 672237, VRS7, MRSA / VRSA, USA100 | MRSA / USA100 / VRSA, S. aureus IHMA 672238, VRS8, MRSA / VRSA, USA100 | MRSA / USA100 / VRSA, S. aureus IHMA 672239, VRS9, MRSA / VRSA, USA100 | MRSA / USA100 / VRSA, S. aureus IHMA 1308256, VRS10, MRSA / VRSA, USA100 | MRSA / USA100 / VRSA, S. aureus IHMA 1308258, VRS11b, MRSA / VRSA, USA100 | MRSA / USA800 / VRSA, S. aureus IHMA 672233, VRS3b, MRSA / VRSA, USA800 | MRSA, S. aureus IHMA 1569509, MRSA / VSSA | MRSA, S. aureus IHMA 1575268, MRSA / VSSA | MRSA, S. aureus IHMA 1577820, MRSA / VSSA | MRSA, S. aureus IHMA 1580940, MRSA / VSSA | MRSA, S. aureus IHMA 1582100, MRSA / VSSA | MRSA, S. aureus IHMA 1583795, MRSA / VSSA | MRSA, S. aureus IHMA 1585316, MRSA / VSSA | MRSA, S. aureus IHMA 1587322, MRSA / VSSA | MRSA, S. aureus IHMA 1592776, MRSA / VSSA | MRSA, S. aureus IHMA 1597106, MRSA / VSSA | MRSA, S. aureus IHMA 1602095, MRSA / VSSA | MRSA, S. aureus IHMA 1611170, MRSA / VSSA | MRSA, S. aureus IHMA 1611612, MRSA / VSSA | MRSA, S. aureus IHMA 1620441, MRSA / VSSA | MRSA, S. aureus IHMA 1695391, MRSA / VSSA | MRSA, S. aureus IHMA 1732989, MRSA / VSSA | MRSA, S. aureus IHMA 1742231, MRSA / VSSA | MSSA / NRS 28 / VISA, S. aureus IHMA 1308249, NRS28, MSSA / VISA | MSSA / USA100 / VRSA, S. aureus IHMA 672236, VRS6, MSSA / VRSA, USA100 | MSSA, S. aureus IHMA 1569754, MSSA / VSSA | MSSA, S. aureus IHMA 1575779, MSSA / VSSA | MSSA, S. aureus IHMA 1580233, MSSA / VSSA | MSSA, S. aureus IHMA 1582691, MSSA / VSSA | MSSA, S. aureus IHMA 1597120, MSSA / VSSA | MSSA, S. aureus IHMA 1597125, MSSA / VSSA | MSSA, S. aureus IHMA 1602078, MSSA / VSSA | MSSA, S. aureus IHMA 1609919, MSSA / VSSA
0.5 µg/mL: MRSA / NRS 21 / VISA, S. aureus IHMA 649388, NRS21, MRSA / VISA | MRSA, S. aureus IHMA 1580300, MRSA / VSSA | MRSA, S. aureus IHMA 1588127, MRSA / VSSA | MRSA, S. aureus IHMA 1592755, MRSA / VSSA | MRSA, S. aureus IHMA 1703428, MRSA / VSSA | MSSA / NRS 12 / VISA, S. aureus IHMA 1308244, NRS12, MSSA / VISA | MSSA / NRS 14 / VISA, S. aureus IHMA 1308246, NRS14, MSSA / VISA | MSSA, S. aureus IHMA 1569499, MSSA / VSSA | MSSA, S. aureus IHMA 1574202, MSSA / VSSA | MSSA, S. aureus IHMA 1591459, MSSA / VSSA | MSSA, S. aureus IHMA 1626392, MSSA / VSSA
